Assay results from patent publication US20240116946A1 (Gilead Sciences, Inc., priority 2022, published 2024).
Where two headings read alike, the source gives them in different places.

Key:
[1] = target: recombinant SARS-CoV-2 Main protease (Mpro) (Severe acute respiratory syndrome coronavirus 2 (2019-nCoV) (SARS-CoV-2), UniProt P0DTD1); test: Cov Mpro Biochemical IC50 Assay; details: read-out: MPro IC50
SARS-CoV-2-NLuc = test: microbe, parasite or virus in culture; assay type: cell-based, SARS Coronavirus 2
[2] = recombinant SARS-CoV-2 Mpro 7.5 nM, fluorogenic peptide substrate 40 μM
[3] = Severe acute respiratory syndrome coronavirus, 48 h, read-out: MPro EC50
[4] = recombinant SARS-CoV-2 Mpro, fluorogenic peptide substrate
[5] = Severe acute respiratory syndrome coronavirus, 48 h; read-out: MPro EC50

Row | Compound | IC50 [1, 2] | EC50 (SARS-CoV-2-NLuc; read-out: MPro EC50) | EC50 (SARS-CoV-2-NLuc; [3]) | IC50 [1, 4] | EC50 (SARS-CoV-2-NLuc; [5])
1 | COc1cnc(Cl)c(-c2cc3c(s2)c(=O)n(-c2cncc4cccc(F)c24)c(=O)n3CCC#N)c1 (single isomer, unassigned) [Example 1095, 3-(6-(2-chloro-5-methoxypyridin-3-yl)-3-(5-fluoroisoquinolin-4-yl)-2,4-dioxo-3,4-dihydrothieno[3,2-d]pyrimidin-1(2H)-yl)propanenitrile] | 0.0556 µM | 0.123 µM | – | – | –
2 | COc1cc(-c2cc3c(s2)c(=O)n(-c2cncc4ncn(C)c24)c(=O)n3CCC#N)c(Cl)cc1F [Example 843] | 0.00543 µM | – | 0.0132 µM | – | –
3 | O=c1[nH]c2cc(-c3ccccc3Cl)sc2c(=O)n1-c1cnccc1N1CCOCC1 [Example 139] | – | – | 0.595 µM | 0.108 µM | –
4 | Cc1cnnc(-n2c(=O)c3sc(-c4ccccc4Cl)cc3n(CCC#N)c2=O)c1 [Example 835] | 0.00944 µM | – | – | – | 0.0281 µM
5 | COc1cc(-c2cc3[nH]c(=O)n(-c4cncc5ccccc45)c(=O)c3s2)c(Cl)cn1 [Example 365] | – | – | 0.343 µM | 0.1 µM | –
6 | COc1cc(-c2cc3c(s2)c(=O)n(-c2cncc4[nH]nc(C)c24)c(=O)n3CCC#N)c(Cl)cc1F (single isomer, unassigned) [Example 960, 3-(6-(2-chloro-4-fluoro-5-methoxyphenyl)-3-(3-methyl-1H-pyrazolo[3,4-c]pyridin-4-yl)-2,4-dioxo-3,4-dihydrothieno[3,2-d]pyrimidin-1(2H)-yl)propanenitrile] | 0.0796 µM | 0.163 µM | – | – | –
7 | CC1(O)CN(c2ccc3cncc(-n4c(=O)[nH]c5cc(-c6ccccc6Cl)sc5c4=O)c3c2)C1 [Example 390] | – | – | 0.0191 µM | 0.0116 µM | –
8 | O=c1[nH]c2cc(-c3ccccc3Cl)cc(F)c2c(=O)n1-c1cncc2ccccc12 [Example 222] | – | – | 0.151 µM | 0.153 µM | –
9 | COc1ccc(C#N)c(-c2ccc3c(=O)n(-c4cncc5cccnc45)c(=O)[nH]c3c2)c1 [Example 218] | – | – | – | 0.0209 µM | 0.0828 µM
10 | COc1cc(-c2ccc3c(=O)n(-c4cncc5ccccc45)c(=O)[nH]c3c2)c(C#N)cn1 [Example 335] | – | – | 0.991 µM | 0.29 µM | –
11 | Cc1c(C2CC2)cncc1-n1c(=O)[nH]c2cc(-c3ccccc3Cl)sc2c1=O [Example 377] | – | – | 6.23 µM | > 50 µM | –
12 | Cc1noc(C)c1-c1cc2[nH]c(=O)n(-c3cncc4ccccc34)c(=O)c2s1 [Example 362] | – | – | 0.201 µM | 0.0356 µM | –
13 | COc1cc(-c2nc3c(s2)c(=O)n(-c2cncc4ccccc24)c(=O)n3CC#N)c(Cl)cc1F [Example 705] | 0.00474 µM | – | 0.00811 µM | – | –
14 | CN(C)c1cncc(-n2c(=O)[nH]c3cc(-c4ccccc4Cl)sc3c2=O)c1 [Example 380] | – | – | 0.77 µM | 5.95 µM | –
15 | Cc1cc(-c2cccc(Cl)c2-c2ccc3c(=O)n(-c4cncc5ccccc45)c(=O)[nH]c3c2)cn2nnnc12 [Example 245] | – | – | 0.0204 µM | 0.0132 µM | –
16 | O=c1[nH]c2cc(-c3c(Cl)cccc3-c3cn4ncnc4c4c3CCC4)sc2c(=O)n1-c1cncc2ccccc12 [Example 520] | < 0.00254 µM | – | 0.0146 µM | – | –
17 | COc1cc(-c2cc3c(s2)c(=O)n(-c2cncc(CO)c2)c(=O)n3CCC#N)c(C#N)cc1F [Example 1102] | 0.00412 µM | – | 0.568 µM | – | –
18 | N#Cc1ncccc1-c1cc2[nH]c(=O)n(-c3cncc4ccccc34)c(=O)c2s1 [Example 538] | 0.0598 µM | – | 0.826 µM | – | –
19 | COc1cnc(C#N)c(-c2cc3c(s2)c(=O)n(-c2cncc4ccccc24)c(=O)n3CCC#N)c1 (single isomer, unassigned) [Example 1093, 3-(1-(2-cyanoethyl)-3-(isoquinolin-4-yl)-2,4-dioxo-1,2,3,4-tetrahydrothieno[3,2-d]pyrimidin-6-yl)-5-methoxypicolinonitrile] | 0.104 µM | 0.16 µM | – | – | –
20 | COc1cnc(Cl)c(-c2cc3[nH]c(=O)n(-c4cncc5cccc(F)c45)c(=O)c3s2)c1 [Example 760] | 0.0156 µM | – | 0.0937 µM | – | –

Row | Compound | IC50 [1, 2] | EC50 (SARS-CoV-2-NLuc; read-out: MPro EC50) | EC50 (SARS-CoV-2-NLuc; [3]) | IC50 [1, 4] | EC50 (SARS-CoV-2-NLuc; [5])
21 | O=c1[nH]c2sc(-c3ccccc3)nc2c(=O)n1-c1cncc2ccccc12 [Example 158, 6-(isoquinolin-4-yl)-2-phenylthiazolo[5,4-d]pyrimidine-5,7(4H,6H)-dione] | – | – | 19.1 µM | 0.133 µM | –
22 | Cc1c(F)cncc1-n1c(=O)c2sc(-c3ccccc3Cl)cc2n(CCC#N)c1=O [Example 1023] | 0.0193 µM | – | – | – | 0.0593 µM
23 | COc1cc(-c2cc3[nH]c(=O)n(-c4cncc5cccc(Cl)c45)c(=O)c3s2)c(Cl)cc1F [Example 1075] | 0.0148 µM | 0.0117 µM | – | – | –
24 | COc1cc(-c2cc3c(s2)c(=O)n(-c2cncc4cnccc24)c(=O)n3CCC#N)c(Cl)cc1F [Example 917] | 0.0075 µM | – | 0.00609 µM | – | –
25 | COc1cc(-c2cc3[nH]c(=O)n(-c4cncc5cccc(C)c45)c(=O)c3s2)c(Cl)cc1F [Example 560] | < 0.00254 µM | – | 0.0061 µM | – | –
26 | O=c1[nH]c2cc(-c3ccccc3Cl)sc2c(=O)n1-c1cncc2ccsc12 [Example 479, 6-(2-chlorophenyl)-3-thieno[3,2-c]pyridin-7-yl-1H-thieno[3,2-d]pyrimidine-2,4-dione] | 0.0167 µM | – | 0.0209 µM | – | –
27 | COc1ccc(C#N)c(-c2cc3[nH]c(=O)n(-c4cncc5ccc(N6CCOCC6)cc45)c(=O)c3cc2F)c1 [Example 435] | 0.00697 µM | – | 0.0374 µM | – | –
28 | N#Cc1ccc(Cl)c(-c2ccc3c(=O)n(-c4cncc5ccccc45)c(=O)[nH]c3c2)c1 [Example 182] | – | – | 0.09 µM | 0.0451 µM | –
29 | COc1ccc(Cl)c(-c2cc3[nH]c(=O)n(-c4cncc5cc(Cl)ccc45)c(=O)c3s2)c1 [Example 591] | 0.0122 µM | – | 0.142 µM | – | –
30 | CO[C@H]1CCN(c2ccc3cncc(-n4c(=O)[nH]c5cc(-c6ccccc6Cl)sc5c4=O)c3c2)C1 [Example 398] | 0.00338 µM | – | 0.0187 µM | – | –
31 | COc1cc(-c2cc3c(s2)c(=O)n(-c2cncc4ccc(C#CC(C)(C)O)cc24)c(=O)n3CCC#N)c(Cl)cc1F [Example 947] | 0.00728 µM | – | 0.0142 µM | – | –
32 | O=c1c2sc(-c3ccccc3Cl)cc2n(CC2CCCC2)c(=O)n1-c1cncc2ccccc12 [Example 4] | – | – | 0.892 µM | 0.792 µM | –
33 | COc1cc(-c2cc3c(s2)c(=O)n(-c2cncc(C)c2C)c(=O)n3CCC#N)c(Cl)cc1F [Example 932] | 0.00533 µM | – | 0.00242 µM | – | –
34 | 6-[2-chloro-6-(8-methyl-[1,2,4]triazolo[1,5-a]pyridin-6-yl)phenyl]-3-(6-methoxy-4-isoquinolyl)-1H-thieno[3,2-d]pyrimidine-2,4-dione [Example 565] | 0.0165 µM | 0.0581 µM | – | – | –
35 | Cn1nnc2cncc(-n3c(=O)c4sc(-c5cc(F)c(F)cc5Cl)cc4n(CCC#N)c3=O)c21 [Example 796] | 0.0405 µM | – | – | – | 0.124 µM
36 | O=c1[nH]c2cc(-c3ccccc3Cl)cnc2c(=O)n1-c1cncc2ccccc12 [Example 30] | – | – | 0.38 µM | 0.0176 µM | –
37 | CC(C)Oc1ccc(Cl)c(-c2cc3[nH]c(=O)n(-c4cncc5ccccc45)c(=O)c3s2)c1 [Example 346] | – | – | 0.239 µM | 0.0735 µM | –
38 | COc1cc(-c2cc3c(s2)c(=O)n(-c2cncc(C)c2)c(=O)n3CCC#N)c(Cl)cc1F [Example 981] | 0.00138 µM | – | 0.00139 µM | – | –
39 | COc1cc(-c2cc3c(s2)c(=O)n(-c2cncc4nc(-c5ccccc5F)n(C)c24)c(=O)n3CCC#N)c(Cl)cc1F [Example 756] | 0.0196 µM | – | 0.0907 µM | – | –
